Reference: patent US5189144A, “Human calpastatin-like polypeptide” (Takara Shuzo Co., Ltd., priority 1989, dated 1993)
“Also recorded” adds a separate entry of the source. No end group written: not given here.

Test system: calpain
Experiment: assay of calpain inhibition (casein substrate, acid-soluble fraction read at 280 nm)
Assay type: biochemical
Details: 15 min at 30° C. after adding calcium chloride, absorbance at 280 nm of the supernatant, profiles only in FIGS. 3 and 4
Protocol: Confirmation of expression can be done by the measurement of the inhibition of calpain, as in the measurement done with casein as the substrate, with extraction from a culture fluid of E. coli, and measurement of the decrease in the acid-soluble fraction by the use of spectroscopy.
The assay of calpain inhibition was done as described below (A. Kitahara et al., J. Biochem., 95, 1759-1766, 1984). First, 10 μl of the sample 2.5 μl of calpain at the concentration of 1 mg/ml, 40 μl of 2% casein in imidazole, and 20 μl of crysteine at the concentration of 6 mg/ml were mixed together, giving a total volume of 180 μl. Next, the mixture was treated for 5 min at 30° C., after which 20 μl of 50 mM calcium chloride was added, and the mixture was incubated for 15 min at 30° C. Then 200 μl of 5% trichloroacetic acid was added to stop the reaction, and the mixture was centrifuged at 12,000 rpm for 10 min. The supernatant was obtained, and its absorbance at 280 nm was measured, from which the inhibitory activity toward calpain was calculated.

Sequence	inhibitory activity toward calpain
DPMSSTYIEELGKREVTIPPKYRELL [polypeptide of 26 amino acids]	can inhibit calpain; also recorded: had calpastatin-like activity
TYIEELGKREVTIPPKYR [polypeptide of 18 amino acids]	can inhibit calpain; also recorded: still has activity; also recorded: inhibited calpain
TYIEELGKREVTIPPKYRELL [polypeptide of 21 amino acids]	can inhibit calpain; also recorded: had calpastatin-like activity
YIEELGKREVTIPPKYR [polypeptide with 17 amino acids, reference compound]	almost undetectable
